Like-named read-outs stand apart in the source and are kept apart here.
Columns and labels:
[1] = test system: isolated rat kidney mitochondria / cytochrome c-deficient mitoplasts; assay: Fluorescence quenching by isolated mitochondria or cytochrome c-deficient mitoplasts; assay type: binding
Protocol: The quenching by cytochrome c was not displaced by sequential additions of bovine serum albumin (FIG. 12C, A+arrows) (500 μg/ml). […] Accordingly, aromatic-cationic peptides of the present disclosure are useful for the prevention or treatment of diseases or disorders characterized by dysregulation of cytochrome c.
Uptake of [atn]SS-02 by isolated mitochondria or cytochrome c-deficient mitoplasts was determined by fluorescence quenching of [atn]SS-02 (λex/λem=320/420) upon addition of a fresh mitochondrial or mitoplast suspension (0.35 mg).
Mitochondria were isolated from the kidney of male Sprague-Dawley rats (Charles River Laboratories International, Inc., Wilmington, Mass.) weighing 250 to 300 g. Excised kidneys were cut and incubated in wash buffer (200 mM mannitol, 10 mM sucrose, 5 mM HEPES, 1 g/L fatty-acid-free BSA, to pH to 7.4 with KOH) on ice for 10 minutes. Samples were washed 2 times in isolation buffer (wash buffer with 1 mM EGTA), homogenized for 3 minutes, and then centrifuged in 20 ml of isolation buffer at 900×g for 10 minutes. The white fatty acid layer was then removed and the […]. The supernatant was centrifuged at 11,000×g for 10 minutes, and the pellet was re-suspended in 800 μl of wash buffer and kept on ice for further analysis.
Mitoplasts deficient in cytochrome c were prepared by first treating fresh or once-frozen mitochondria with 3.3 mg/ml digitonin for 45 minutes on ice, in order to remove the mitochondrial outer membrane. To remove electrostatically-bound cytochrome c, […] pH 7.4 was then added to the mix and centrifuged at 19,000×g for 30 minutes. The pellet was collected and re-dissolved in wash buffer and stored on ice until use. Only mitoplast preparations that responded to the addition of 200 nM exogenous cytochrome c by 4-5 fold increase in mitochondrial respiration (oxygen consumption) were used in the study. […]

cytochrome c = cytochrome c (Equus caballus, UniProt P00004); assay: Fluorescence quenching of labelled peptides by cytochrome c; assay type: binding, horse; set-up: from tissue; host or cells: horse heart; conditions: additions of 75 μg/ml BSA
cytochrome c, sequence (P00004 2-105 limits assumed): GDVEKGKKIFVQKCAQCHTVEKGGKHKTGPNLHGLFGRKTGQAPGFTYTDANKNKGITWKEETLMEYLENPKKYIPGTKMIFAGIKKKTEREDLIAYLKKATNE

isolated mitochondria = assay: ATP synthesis in isolated mitochondria; assay type: biochemical, rat
Protocol: Fresh mitochondria were isolated from rat kidney as described previously. Electron flux was measured by O2 consumption (Oxygraph Clark electrode) as previously described using different substrates for C1 (glutamate/malate), C2 (succinate), and C3 (TMPD/ascorbate). Assays were carried out under low substrate conditions in order to avoid saturating the enzyme reactions. ATP production in isolated mitochondria was determined kinetically using the luciferase method (Biotherma) in a 96-well luminescence plate reader (Molecular Devices). The initial maximal rate for ATP synthesis was determined over the first minute.
The rate of mitochondrial ATP synthesis was determined by measuring ATP in respiration buffer collected from isolated mitochondria 1 min after addition of […] (FIG. 6). ATP was assayed by HPLC. All experiments were carried out in triplicate, with n=3. […] Accordingly, aromatic-cationic peptides of the present disclosure are useful for increasing ATP synthesis in mitochondria and for treating diseases or disorder characterized by dysregulation of ATP synthesis.
SS-20 or SS-31 was added at 100 μM concentrations to isolated mitochondria in respiration buffer containing 0.5 mM succinate (complex II substrate) and 400 μM ADP. Similar increases in O2 consumption were observed when low concentrations of complex I substrates (glutamate/malate) were used (data not shown). […] Accordingly, targeting SS-20 and SS-31 to the IMM can facilitate electron flux in the electron transport chain and improve ATP synthesis, especially under conditions of reduced substrate supply.
Increase in electron flux in the electron transport chain can either result in increase in ATP synthesis or increase in electron leak and generation of free radicals. ATP synthesis in isolated mitochondria was assayed by HPLC. […] Accordingly, aromatic-cationic peptides of the present disclosure are useful for increasing ATP synthesis in mitochondria and for treating diseases or disorder characterized by dysregulation of ATP synthesis.

[2] = target: T1, horse radish peroxidase (HRP) (Armoracia rusticana, UniProt P00433); assay: Horseradish peroxidase activity (Amplex Red); assay type: biochemical; conditions: data not shown
T1 sequence (P00433 31-338 limits assumed): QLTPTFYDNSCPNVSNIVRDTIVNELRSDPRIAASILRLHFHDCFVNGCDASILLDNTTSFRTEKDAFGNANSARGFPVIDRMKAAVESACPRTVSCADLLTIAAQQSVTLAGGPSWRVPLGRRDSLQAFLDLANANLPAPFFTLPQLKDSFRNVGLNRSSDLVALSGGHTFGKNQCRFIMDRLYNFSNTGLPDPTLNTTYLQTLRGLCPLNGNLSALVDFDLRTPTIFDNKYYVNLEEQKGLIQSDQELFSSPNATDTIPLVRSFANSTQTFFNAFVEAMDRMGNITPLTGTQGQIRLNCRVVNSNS

[3] = test system: cytochrome c-depleted mitoplasts; assay: Respiration in cytochrome c-depleted mitoplasts; assay type: biochemical, rat
Protocol: Rates of respiration were measured in the presence of 500 μM Succinate with or without 100 μM SS-31. The experiment was carried out in triplicate, with n=3. […] Accordingly, aromatic-cationic peptides of the present disclosure are useful for the prevention or treatment of diseases or disorders characterized by dysregulation of cytochrome c.
A model of cytochrome c tightly bound to mitochondrial cardiolipin was used to investigate interaction of SS-31 with cytochrome c-CL complex in mitochondria. After removal of outer membrane with digitonin, mitoplasts were washed with 120 mM KCl to remove all free and electrostatically associated cytochrome c, leaving only cytochrome c tightly bound to CL.

Substance	quenching of fluorescence by cytochrome c-depleted/deficient mitoplasts versus mitochondria [1]	quenching of fluorescence by isolated mitochondria ([1]; 10 μM peptide, 0.2 mg mitochondria)	quenching of fluorescence by cytochrome c-depleted/deficient mitoplasts versus mitochondria ([1]; listed as [atn]SS-02)	reversal of cytochrome c quenching by BSA (cytochrome c)	rate of ATP synthesis (isolated mitochondria; 1 min after addition of 400 mM ADP, HPLC)	ATP synthesis (isolated mitochondria; assayed by HPLC (Example 18))	rate of ATP production (isolated mitochondria; mitochondria energized with low concentrations of succinate)	HRP activity [2]	respiration (O2 consumption) in cytochrome c-depleted mitoplasts ([3]; 500 μM succinate, 100 μM SS-31)	complex II respiration in mitoplasts with tightly bound cytochrome c ([3]; mitoplasts washed with 120 mM KCl)
2′,6′-Dmt-D-Arg-Phe-(atn)Dap-NH2 [SS-19]	significantly reduced	quenched by sequential addition of 0.2 mg isolated rat renal kidney mitochondria	appreciable in cytochrome c-deficient mitoplasts but was less than in intact mitochondria	did not reverse quenching	–	–	–	–	–	–
D-Arg-2′,6′-Dmt-Lys-Phe-NH2 [SS-31]	–	–	–	–	dose-dependently increased the rate of ATP synthesis	dose-dependently increased ATP synthesis	significant increase in the rate of ATP production	no effect	Enhances Respiration in Cytochrome c-Depleted Mitoplasts	enhances complex II respiration in mitoplasts with cytochrome c tightly bound to inner mitochondrial membrane in a dose-dependent manner

— patent publication US10808008B2, “Aromatic-cationic peptides and uses of same” (Cornell University, priority 2012, dated 2020)
